The values that follow come from patent US20250332173A1, “COMPOUNDS AND METHODS FOR MODULATING NUCLEIC ACID SPLICING” (REMIX THERAPEUTICS INC., priority 2021, published 2025).

Broadly, the GI50 is the concentration that inhibits growth by half. Broadly, the IC50 is the concentration needed to halve the response being measured. The term AC50 denotes the concentration giving half of the maximal activity seen.

Each structure is given as a SMILES string. Read-outs that look alike come from different tables or passages of the source.

For test [1], the system named is K562 (human chronic myelogenous leukemia) cells. As to the kind of experiment: Cell Titer Glo 2.0 cell viability assay. In kind it is cell-based. Conditions: Homo sapiens, K562, 72 h, K562 cells, 72 hours, Cell Titer Glo 2.0; read-out: K562 GI50. (In general: In ATP-based viability assays light output follows the ATP content of the culture.)
For a further test, the system named is MYB mRNA. As to the kind of experiment: RT-qPCR splicing assay, MYB canonical junction (CJ) and alternative junction (AJ) mRNA. In kind it is cell-based, human. Conditions: Homo sapiens; for AC50: increase in MYB alternative junction (AJ) mRNA, read-out: MYB AJ AC50. The essentials:
(§1)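 Following a 24-hour incubation of A673 or K562 cells with serially diluted compound (3-fold steps, highest final 10 uM), the lysates undergo cDNA synthesis plus qPCR. Canonical and alternative junctions are each quantified against PPIA, GAPDH or GUSB.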
Background: Real-time PCR tracks product formation cycle by cycle.

The next test relates to HTT mRNA. As to the kind of experiment: RT-qPCR splicing assay, HTT canonical junction (CJ) and alternative junction (AJ) mRNA. In kind it is cell-based, human. Conditions: Homo sapiens; for AC50: increase in HTT alternative junction (AJ) mRNA, read-out: HTT AJ AC50. In short, it runs like this: as §1
The test system of the next test is Target C. Briefly: RT-qPCR splicing assay panel, Target C canonical junction (CJ) mRNA. Conditions: Homo sapiens; Table 5 panel; canonical junction qPCR; compound concentration having 50% response in CJ decrease; read-out: Target C IC50 (decrease in CJ mRNA levels). In kind it is cell-based, human. In short, it runs like this: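 Exposure: 24 h, 37 °C, 11-point 3-fold dilutions from 10 uM final, DMSO at or below 0.25%, in A673 or K562 cells. Detection: cell-lysate RT-qPCR of canonical junction mRNA relative to GAPDH, GUSB or PPIA.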

The mark [2] stands for this setting: Table 5 panel, canonical junction qPCR, compound concentration having 50% response in CJ decrease, read-out: MYB IC50 (decrease in CJ mRNA levels).
[3] abbreviates: decrease in MYB canonical junction (CJ) mRNA, RT-qPCR, read-out: MYB CJ IC50.
The mark [4] stands for this setting: decrease in HTT canonical junction (CJ) mRNA, RT-qPCR, read-out: HTT CJ IC50.
[5] abbreviates: Table 5 panel, canonical junction qPCR, compound concentration having 50% response in CJ decrease, read-out: HTT IC50 (decrease in CJ mRNA levels).

With `Cn1cc2cc(-c3ncc4c(=O)n(C5CCNCC5)ccc4n3)cc(F)c2n1` [Compound 1212, 2-(7-fluoro-2-methyl-2H-indazol-5-yl)-6-(piperidin-4-yl)pyrido[4,3-d]pyrimidin-5(6H)-one], in test [1], the concentration for 50% growth inhibition (GI50) lay within 100 to 1000 nM. Moreover, the half-maximal inhibitory concentration (IC50) in the test on MYB mRNA (setting [2]) was under 100 nM; in the test with MYB mRNA (setting [3]) it was 100 to 1000 nM; with HTT mRNA (setting [4]), 100 to 1000 nM; in the test with HTT mRNA (setting [5]) it was 100 to 1000 nM; in the test on Target C, 100 to 1000 nM. Moreover, the half-maximal activity concentration (AC50) with MYB mRNA (RT-qPCR) is under 100 nM; in the test on HTT mRNA (RT-qPCR), 100 to 1000 nM.

Take `Cc1cn2cc(-c3cc4ccn(C5CCNC5)c(=O)c4cn3)cc(C#N)c2n1` (stereo not drawn) [Compound 1214]: in test [1], the GI50 was in the range of 1000 to 10000 nM. Also, the IC50 with MYB mRNA (setting [2]) was 1000 to 10000 nM; with MYB mRNA (setting [3]) it was 1000 to 10000 nM; in the test with HTT mRNA (setting [4]) it was over 10000 nM; with HTT mRNA (setting [5]), over 10000 nM; in the test with Target C, over 10000 nM. Moreover, the concentration at half-maximal activity (AC50) is 1000 to 10000 nM in the test on MYB mRNA (RT-qPCR) and over 10000 nM in the test on HTT mRNA (RT-qPCR).

As to `Cc1cn2cc(-c3ncc4c(=O)n(C5CCNC5)ccc4n3)cc(F)c2n1` (stereo not drawn) [Compound 1215], the GI50 in test [1] is 1000 to 10000 nM. Besides, the IC50 with MYB mRNA (setting [2]) is 100 to 1000 nM; with MYB mRNA (setting [3]), 1000 to 10000 nM; with HTT mRNA (setting [4]), over 10000 nM; in the test with HTT mRNA (setting [5]), over 10000 nM; in the test on Target C, over 10000 nM. For the same compound, the AC50 in the test on MYB mRNA (RT-qPCR) was 100 to 1000 nM; in the test with HTT mRNA (RT-qPCR), over 10000 nM.

In the case of `COc1c(-c2cc3ccn(C4CCNCC4)c(=O)c3cn2)cc2cn(C)nc2c1F` [Compound 1219], in test [1], the concentration for 50% growth inhibition (GI50) fell in the range of 1000 to 10000 nM. Further, the IC50 with MYB mRNA (setting [2]) is 1000 to 10000 nM; in the test on MYB mRNA (setting [3]), 1000 to 10000 nM; in the test with HTT mRNA (setting [4]) it was 1000 to 10000 nM; with HTT mRNA (setting [5]), 1000 to 10000 nM; in the test with Target C, over 10000 nM. Moreover, the AC50 with MYB mRNA (RT-qPCR) and in the test on HTT mRNA (RT-qPCR) was 1000 to 10000 nM in each case.

Consider `Cc1cn2cc(-c3ncc4c(=O)n([C@H]5CCNC5)ccc4n3)cc(F)c2n1` [Compound 1220], for which the GI50 in test [1] lay in the range of 100 to 1000 nM. Moreover, the concentration for half-maximal inhibition (IC50) with MYB mRNA (setting [2]), in the test with MYB mRNA (setting [3]), in the test with HTT mRNA (setting [4]), in the test with HTT mRNA (setting [5]) and with Target C was 100 to 1000 nM in each case. Also, the AC50 in the test with MYB mRNA (RT-qPCR) and in the test with HTT mRNA (RT-qPCR) was 100 to 1000 nM in each case.

Consider `Cc1cn2cc(-c3ncc4c(=O)n(C5CCNC5)ccc4n3)cc(C#N)c2n1` (stereo not drawn) [Compound 1221], for which the 50% growth inhibitory concentration (GI50) in test [1] lay within 100 to 1000 nM. Besides, the IC50 in the test on MYB mRNA (setting [2]), with MYB mRNA (setting [3]), in the test on HTT mRNA (setting [4]), in the test with HTT mRNA (setting [5]) and with Target C was 100 to 1000 nM each time. Also, the half-maximal activity concentration (AC50) in the test with MYB mRNA (RT-qPCR) and in the test with HTT mRNA (RT-qPCR) was 100 to 1000 nM throughout.

Regarding `Cc1c(O)c(-c2ncc3c(=O)n(C4CCNC4)ccc3n2)cc2cn(C)nc12` (stereo not drawn) [Compound 1222], the 50% growth inhibitory concentration (GI50) in test [1] fell in the range of 1000 to 10000 nM. Also, the IC50 with MYB mRNA (setting [2]) was 100 to 1000 nM; in the test on MYB mRNA (setting [3]), 100 to 1000 nM; in the test on HTT mRNA (setting [4]) it was over 10000 nM; with HTT mRNA (setting [5]) it was 1000 to 10000 nM; in the test with Target C, over 10000 nM. Also, the half-maximal activity concentration (AC50) in the test on MYB mRNA (RT-qPCR) was in the range of 100 to 1000 nM; with HTT mRNA (RT-qPCR), 1000 to 10000 nM.

For `Cn1cc2cc(-c3ncc4c(=O)n(C5CCNC5)ccc4n3)c(O)c(F)c2n1` (stereo not drawn) [Compound 1223], the GI50 in test [1] was in the range of 1000 to 10000 nM. The IC50 in the test with MYB mRNA (setting [2]) was 100 to 1000 nM; in the test with MYB mRNA (setting [3]), 100 to 1000 nM; in the test on HTT mRNA (setting [4]), 1000 to 10000 nM; in the test on HTT mRNA (setting [5]), 1000 to 10000 nM; in the test on Target C, 1000 to 10000 nM. The figures for the AC50 in the test on MYB mRNA (RT-qPCR) and in the test on HTT mRNA (RT-qPCR) were 100 to 1000 nM and 1000 to 10000 nM, respectively.

Turning to `Cc1cn2cc(-c3ncc4c(=O)n(C5CCNCC5)ccc4n3)c(O)c(C)c2n1` [Compound 1225], the GI50 in test [1] fell in the range of 100 to 1000 nM. For the same compound, the half-maximal inhibitory concentration (IC50) in the test with MYB mRNA (setting [2]), in the test with MYB mRNA (setting [3]), in the test with HTT mRNA (setting [4]), in the test on HTT mRNA (setting [5]) and in the test on Target C was 100 to 1000 nM each time. Also, the AC50 in the test with MYB mRNA (RT-qPCR) and in the test on HTT mRNA (RT-qPCR) was 100 to 1000 nM each time.
